Assay: Body weight gain-reducing action in KKAy mice
Conditions: female KKAy mice; for % control (blood glucose level): in admixture with the feed for 4 days, blood glucose relative to own control group = 100

Row | Compound | % control (blood glucose level) [%] | effect on body weight (in words) (4 days, dose that reduced the blood glucose level to 50-58%)
1 | Cc1oc(-c2ccccc2)nc1COc1ccc(CO/N=C(\CCC(=O)O)c2ccccc2)cc1 [compound of Production Example 3, E-4-[4-(5-methyl-2-phenyl-4-oxazolylmethoxy)benzyloxyimino]-4-phenylbutyric acid] | 50 | –
2 | CN(CCOc1ccc(CC2SC(=O)NC2=O)cc1)c1ccccn1 (stereo not drawn) [rosiglitazone] | 58 | significantly increased the body weight
